Measurements taken from patent US10981911B2, “Imidazopyrrolopyridine as inhibitors of the JAK family of kinases” (Janssen Pharmaceutica NV, priority 2016, dated 2021).
Where two headings read alike, the source gives them in different places.

Legend:
[1] = In vivo p.o. dosing: plasma and colon tissue concentrations (Protocols 1 and 2); set-up: species or system female C57BL/6 mice; details: female, C57BL/6, mouse, po, mice, 25 mg/kg p.o.
Procedure: These protocols are described below under the heading In vivo Studies. Three non-fasted female C57BL/6 mice were orally administered test compound at a dose of 25 mg/kg p.o. as a solution in 20% hydroxypropyl-beta-cyclodextrin (HPβCD) at a dose volume of 5 mL/kg. Blood samples were collected at 0.5, 2, and 4 h post dose via retro-orbital bleed or venipuncture of the dorsal metatarsal vein. Blood samples were collected into tubes containing anticoagulant (Heparin-Na) and placed on wet ice. The plasma fraction was separated by centrifugation and frozen at −20° C. for up to 4 h and −80° C. after 4 h unless analyzed shortly after sample collection. Colon samples were collected at 4 h post dose. […] The colon was further washed by putting it in 5 mL of saline and shaken for 5 seconds. The colon sample was then patted dry, weighed, and homogenized as 1 part tissue (g) to 4 parts HPLC grade water (mL). Concentrations of the compound in plasma and colon homogenate were determined using a qualified liquid chromatography-triple quadrupole mass spectrometry (LC-MS/MS) method. […] Three non-fasted female C57BL/6 mice were orally administered test compound at a dose of 25 mg/kg p.o. as a solution in 20% HPβCD at a dose volume of 5 mL/kg. Blood samples were collected at 0.5, 2, and 4 h post dose via retro-orbital bleed or dorsal metatarsal vein. Blood samples were collected into tubes containing anticoagulant (Heparin-Na) and placed on wet ice. The plasma fraction was separated by centrifugation and frozen at −20° C. for up to 4 h and −80° C. after 4 h unless analyzed shortly after sample collection. Colon samples were collected at 4 h post dose. From 2 cm below the cecum, a 4 cm sample of the colon was dissected, cut open on the longitudinal axis, and the solid contents removed by flushing with 2 mL of saline. The colon was further washed by putting it in 5 mL of saline and shaken for 5 seconds. The colon sample was then patted dry, weighed, and homogenized as 1 part tissue (g) to 4 parts HPLC grade water (mL). Concentrations of the compound in plasma and colon homogenate were determined using a qualified liquid chromatography-triple quadrupole mass spectrometry (LC-MS/MS) method.

P-gp (MDR1) = assay: MDCK-MDR1 permeability assay; type: in vitro ADME; details: dog; for Papp A→B at 60 min, 5 μM / Papp B→A at 60 min, 5 μM: MDCK-MDR1, pH 7.4, @ 5 μM; for Papp A→B at 60 min, 5 μM: apical to basolateral, without P-gp inhibitor; for Papp B→A at 60 min, 5 μM: basolateral to apical; for efflux ratio at 60 min, 5 μM: MDCK-MDR1, pH 7.4, MDCK-MDR1, 5 μM, read-out: Papp(B-A)/Papp(A-B) (efflux ratio)
Procedure: Permeability measurements were conducted according to the Cyprotex protocol using the MDCK-MDR1 cell line obtained from the NIH (Rockville, Md., USA). Cells between passage numbers 6-30 were seeded onto a Multiscreen Plate™ (Millipore) at a cell density of 3.4×10^5 cells/cm^2 and cultured for three days before permeability studies were conducted. The cells in this assay form a cohesive sheet of a single cell layer filing the surface area of the culture dish, also known as a confluent monolayer, and on day four the test compound was added to the apical side of the membrane and the transport of the compound across the monolayer was monitored over a time period of 60 min.
Test compounds were dissolved in DMSO at a concentration of 10 mM. The dosing solutions were prepared by diluting test compound with assay buffer (Hanks Balanced Salt Solution), pH 7.4, at a final concentration of 5 μM. For assessment of apical to basolateral (“A-B”) permeability, buffer was removed from the apical compartment and replaced with test compound dosing solution with or without the permeability glycoprotein (“PgP”, “P-gP”, “Pgp” or “P-gp”) inhibitor elacridar (2 μM). For assessment of basolateral to apical (“B-A”) permeability, buffer was removed from the companion plate and replaced with test compound dosing solution. Incubations were carried out in duplicate at 37° C. in an atmosphere of 5% CO2 with a relative humidity of 95%. Each assay included the reference markers propranolol (high permeability) and prazosin (PgP substrate). After incubation for 60 minutes, apical and basolateral samples were diluted and test compounds quantified by LC/MS/MS using an 8-point calibration in the range 0.0039 to 3 μM with appropriate dilution of the samples (receiver dilution factor=1; donor and C0 dilution factor=10). The permeability coefficient (Papp) for each compound was calculated from the following equation: Papp=(dQ/dt)/(C0×S), where dQ/dt is the rate of permeation of the drug across the cells, C0 is the donor compartment concentration at time zero, and S is the area of the cell monolayer.
The second and third columns in Table 7 show the values of Papp(A-B) for the apical-to-basolateral compound transport without (second column) and with a P-gp inhibitor (third column, noted as P^eapp(A-B)) that was elacridar. Papp(A-B) gives an indication of permeation extent across the cells in this assay, which is envisaged to model the transcellular transport across Pgp-expressing cells, such as Pgp-expressing gastrointestinal tract cells. P^eapp(A-B) values (Papp(A-B) in the presence of the P-gp inhibitor) given in column 3 are determined to confirm the role of P-gp in the compound efflux. […] Test compound efflux ratios are given in the fifth column of Table 7 as Papp(B-A)/Papp(A-B) by using the corresponding permeability coefficient values from the fourth and second columns in the same table.

IL-2 pSTAT5 (JAK1/JAK3) = IL-2 pSTAT5 (JAK1/JAK3) cellular assay (AlphaLISA, PBMCs); type: cell-based; details: PBMC, IL-2 at 5 ng/mL
Procedure: The AlphaLISA assay (based on Alpha Technology from PerkinElmer) was performed by first plating freshly thawed PBMCs (Biological Specialty Corporation) in 384-well plates at 30,000 cells per 4 μL per well in HBSS (Hanks' Balanced Salt Solution) containing 0.1% IgG (immunoglobulin G)-free, protease-free BSA (bovine serum albumin) (Jackson ImmunoResearch Cat. No. 001-000-161). The cells were then treated with 2 μL/well of compounds diluted in DMSO at half-log titrated concentrations, with a highest test concentration of 10 μM and 0.5% final DMSO concentration, for thirty minutes at 37° C. […] Compound IC50 was calculated by nonlinear regression, sigmoidal dose response analysis of the half-log dilution titration curve of the compound concentration vs. Alpha signal. The acronym “Alpha” stands for amplified luminescent proximity homogeneous assay; the Alpha signal is a luminescent/fluorescent signal.

[2] = colon, read-out: Colon Concentration After p.o. Dosing, Mean
[3] = plasma, read-out: Plasma Concentration After p.o. Dosing, Mean

SMILES | concentration at 4 h [1, 2] [ng/g] | concentration at 0.5 h [1, 3] [ng/mL] | concentration at 2 h [1, 3] [ng/mL] | concentration at 4 h [1, 3] [ng/mL] | Papp A→B at 60 min, 5 μM (P-gp (MDR1)) [×10⁻⁶ cm/s] | Papp B→A at 60 min, 5 μM (P-gp (MDR1)) [×10⁻⁶ cm/s] | efflux ratio at 60 min, 5 μM (P-gp (MDR1)) | IC50 (IL-2 pSTAT5 (JAK1/JAK3)) [nM]
CC(C)(O)CNC(=O)Cc1nc2cnc3[nH]ccc3c2n1[C@H]1CC[C@H](CC#N)CC1 [Ex. 1, 2-(1-((1r,4r)-4-(Cyanomethyl)cyclohexyl)-1,6-dihydroimidazo[4,5-d]pyrrolo[2,3-b]pyridin-2-yl)-N-(2-hydroxy-2-methylpropyl)acetamide] | 8590 | 13.4 | 6.1 | 3.3 | < 0.5 | 0.9 | > 1.9 | –
N#CCC1CCC(n2c(-c3c[nH]cn3)nc3cnc4[nH]ccc4c32)CC1 (stereo not shown) [Ex. 2, 2-((1r,4r)-4-(2-(1H-Imidazol-4-yl)imidazo[4,5-d]pyrrolo[2,3-b]pyridin-1(6H)-yl)cyclohexyl)acetonitrile] | 7600 | 24.5 | 4.2 | 1.3 | 1.1 | 4.8 | 4.4 | 9
N#CC[C@H]1CC[C@H](n2c(CC(=O)NCC3CC3)nc3cnc4[nH]ccc4c32)CC1 [Ex. 3, 2-(1-((1r,4r)-4-(Cyanomethyl)cyclohexyl)-1,6-dihydroimidazo[4,5-d]pyrrolo[2,3-b]pyridin-2-yl)-N-(cyclopropylmethyl)acetamide] | 2150 | 41.4 | 3.9 | 1.5 | < 0.4 | 17 | > 41 | 6.4
N#CCCNC(=O)Cc1nc2cnc3[nH]ccc3c2n1[C@H]1CC[C@H](CC#N)CC1 [Ex. 4, N-(2-Cyanoethyl)-2-(1-((1r,4r)-4-(cyanomethyl)cyclohexyl)-1,6-dihydroimidazo[4,5-d]pyrrolo[2,3-b]pyridin-2-yl)acetamide] | 4450 | 12.9 | 7.5 | 3.3 | 0.1 | 1.3 | 8.7 | 35.5
N#CC[C@H]1CC[C@H](n2c(CC(=O)NC3CCOCC3)nc3cnc4[nH]ccc4c32)CC1 [Ex. 5, 2-(1-((1r,4r)-4-(Cyanomethyl)cyclohexyl)-1,6-dihydroimidazo[4,5-d]pyrrolo[2,3-b]pyridin-2-yl)-N-(tetrahydro-2H-pyran-4-yl)acetamide] | 5330 | 31.9 | 8.8 | 6 | < 0.4 | 1.8 | > 4.8 | 6.4
N#CC[C@H]1CC[C@H](n2c(CC(=O)NCC3CCOCC3)nc3cnc4[nH]ccc4c32)CC1 [Ex. 10, 2-(1-((1r,4r)-4-(Cyanomethyl)cyclohexyl)-1,6-dihydroimidazo[4,5-d]pyrrolo[2,3-b]pyridin-2-yl)-N-((tetrahydro-2H-pyran-4-yl)methyl)acetamide] | 11700 | 18.8 | 3 | 1.7 | < 0.3 | 2.5 | > 8.4 | 6.7
CC(C)(C#N)CNC(=O)Cc1nc2cnc3[nH]ccc3c2n1[C@H]1CC[C@H](CC#N)CC1 [Ex. 22, N-(2-Cyano-2-methylpropyl)-2-(1-((1r,4r)-4-(cyanomethyl)cyclohexyl)-1,6-dihydroimidazo[4,5-d]pyrrolo[2,3-b]pyridin-2-yl)acetamide] | 12000 | 47 | 9.6 | 5 | < 0.4 | 3.6 | > 9 | 9.7
N#CC[C@H]1CC[C@H](n2c(CC(=O)NCC3(O)CCC3)nc3cnc4[nH]ccc4c32)CC1 [Ex. 34, 2-(1-((1r,4r)-4-(Cyanomethyl)cyclohexyl)-1,6-dihydroimidazo[4,5-d]pyrrolo[2,3-b]pyridin-2-yl)-N-((1-hydroxycyclobutyl)methyl)acetamide] | 7400 | 43.1 | 5.4 | 2.6 | 0.1 | 1.7 | 11.5 | 20.6
N#CCC12CCC(NC(=O)Cc3nc4cnc5[nH]ccc5c4n3[C@H]3CC[C@H](CC#N)CC3)(CC1)C2 [Ex. 55, N-(4-(Cyanomethyl)bicyclo[2.2.1]heptan-1-yl)-2-(1-((1r,4r)-4-(cyanomethyl)cyclohexyl)-1,6-dihydroimidazo[4,5-d]pyrrolo[2,3-b]pyridin-2-yl)acetamide] | 3000 | 26.6 | 3.2 | 3.1 | < 0.4 | 7.1 | > 16.9 | 16.8
N#CC[C@H]1CC[C@H](n2c(CC(=O)NCC3(O)CC3)nc3cnc4[nH]ccc4c32)CC1 [Ex. 85, 2-(1-((1r,4r)-4-(Cyanomethyl)cyclohexyl)-1,6-dihydroimidazo[4,5-d]pyrrolo[2,3-b]pyridin-2-yl)-N-((1-hydroxycyclopropyl)methyl)acetamide] | 5880 | 15.6 | 4.2 | 2.3 | < 0.5 | 1.1 | > 2.2 | 13.9
